{
  "source": "ChEMBL document CHEMBL5634115",
  "about": "“Exploring novel anticancer pyrazole benzenesulfonamides featuring tail approach strategy as carbonic anhydrase inhibitors” (Eur J Med Chem, 2023)",
  "assay_in_all_cases": "cells",
  "key": {"SK-MEL-5": {"test_system": "SK-MEL-5", "type": "functional", "details": "Homo sapiens, time 48 hrs", "description": "Cytostatic activity against human SK-MEL-5 cells assessed as total growth inhibition measured after 48 hrs by sulforhodamine B assay"}, "SF-539": {"test_system": "SF-539", "details": "Homo sapiens, SF-539, 48 h, read-out: LC50", "description": "Cytotoxicity activity against human SF-539 cells assessed as reduction in cell growth measured after 48 hrs by sulforhodamine B assay"}, "T47D [1]": {"test_system": "T47D", "type": "functional", "details": "Homo sapiens, time 48 hrs", "description": "Growth inhibition of human T47D cells measured after 48 hrs by sulforhodamine B assay"}, "OVCAR-5": {"test_system": "OVCAR-5", "details": "Homo sapiens, OVCAR-5, 48 h, read-out: LC50", "description": "Cytotoxicity activity against human OVCAR-5 cells assessed as reduction in cell growth measured after 48 hrs by sulforhodamine B assay"}, "NCI-H460": {"test_system": "NCI-H460", "type": "functional", "details": "Homo sapiens, time 48 hrs", "description": "Cytostatic activity against human NCI-H460 cells assessed as total growth inhibition measured after 48 hrs by sulforhodamine B assay"}, "OVCAR-4 [2]": {"test_system": "OVCAR-4", "type": "functional", "details": "Homo sapiens, time 48 hrs", "description": "Cytostatic activity against human OVCAR-4 cells assessed as total growth inhibition measured after 48 hrs by sulforhodamine B assay"}, "SK-MEL-28": {"test_system": "SK-MEL-28", "type": "functional", "details": "Homo sapiens, time 48 hrs", "description": "Cytostatic activity against human SK-MEL-28 cells assessed as total growth inhibition measured after 48 hrs by sulforhodamine B assay"}, "BT-549 [3]": {"test_system": "BT-549", "details": "Homo sapiens, BT-549, 48 h, read-out: LC50", "description": "Cytotoxicity activity against human BT-549 cells assessed as reduction in cell growth measured after 48 hrs by sulforhodamine B assay"}, "COLO 205": {"test_system": "COLO 205", "type": "functional", "details": "Homo sapiens, time 48 hrs", "description": "Growth inhibition of human COLO 205 cells measured after 48 hrs by sulforhodamine B assay"}, "RPMI-8226 [4]": {"test_system": "RPMI-8226", "details": "Homo sapiens, RPMI-8226, 48 h, read-out: LC50", "description": "Cytotoxicity activity against human RPMI-8226 cells assessed as reduction in cell growth measured after 48 hrs by sulforhodamine B assay"}, "HL-60(TB) [5]": {"test_system": "HL-60(TB)", "type": "functional", "details": "Homo sapiens, time 48 hrs", "description": "Cytostatic activity against human HL-60(TB) cells assessed as total growth inhibition measured after 48 hrs by sulforhodamine B assay"}, "OVCAR-4 [6]": {"test_system": "OVCAR-4", "details": "Homo sapiens, OVCAR-4, 48 h, read-out: LC50", "description": "Cytotoxicity activity against human OVCAR-4 cells assessed as reduction in cell growth measured after 48 hrs by sulforhodamine B assay"}, "HL-60(TB) [7]": {"test_system": "HL-60(TB)", "type": "functional", "details": "Homo sapiens, time 48 hrs", "remark": "listed apart in the source", "description": "Growth inhibition of human HL-60(TB) cells measured after 48 hrs by sulforhodamine B assay"}, "SNB-75": {"test_system": "SNB-75", "type": "functional", "details": "Homo sapiens, time 48 hrs", "description": "Growth inhibition of human SNB-75 cells measured after 48 hrs by sulforhodamine B assay"}, "TK-10 [8]": {"test_system": "TK-10", "type": "functional", "details": "Homo sapiens, time 48 hrs", "description": "Growth inhibition of human TK-10 cells measured after 48 hrs by sulforhodamine B assay"}, "DU-145": {"test_system": "DU-145", "type": "functional", "details": "Homo sapiens, time 48 hrs", "description": "Growth inhibition of human DU-145 cells measured after 48 hrs by sulforhodamine B assay"}, "M14 [9]": {"test_system": "M14", "type": "functional", "details": "Homo sapiens, time 48 hrs", "description": "Cytostatic activity against human M14 cells assessed as total growth inhibition measured after 48 hrs by sulforhodamine B assay"}, "HCT-15 [10]": {"test_system": "HCT-15", "details": "Homo sapiens, HCT-15, 48 h, read-out: LC50", "description": "Cytotoxicity activity against human HCT-15 cells assessed as reduction in cell growth measured after 48 hrs by sulforhodamine B assay"}, "SK-MEL-2": {"test_system": "SK-MEL-2", "type": "functional", "details": "Homo sapiens, time 48 hrs", "description": "Growth inhibition of human SK-MEL-2 cells measured after 48 hrs by sulforhodamine B assay"}, "SNB-19": {"test_system": "SNB-19", "type": "functional", "details": "Homo sapiens, time 48 hrs", "description": "Growth inhibition of human SNB-19 cells measured after 48 hrs by sulforhodamine B assay"}, "BT-549 [11]": {"test_system": "BT-549", "type": "functional", "details": "Homo sapiens, time 48 hrs", "description": "Growth inhibition of human BT-549 cells measured after 48 hrs by sulforhodamine B assay"}, "ACHN [12]": {"test_system": "ACHN", "type": "functional", "details": "Homo sapiens, time 48 hrs", "description": "Cytostatic activity against human ACHN cells assessed as total growth inhibition measured after 48 hrs by sulforhodamine B assay"}, "CAKI-1": {"test_system": "CAKI-1", "type": "functional", "details": "Homo sapiens, time 48 hrs", "description": "Growth inhibition of human CAKI-1 cells measured after 48 hrs by sulforhodamine B assay"}, "M14 [13]": {"test_system": "M14", "type": "functional", "details": "Homo sapiens, time 48 hrs", "remark": "listed apart in the source", "description": "Growth inhibition of human M14 cells measured after 48 hrs by sulforhodamine B assay"}, "SR [14]": {"test_system": "SR", "type": "functional", "details": "Homo sapiens, time 48 hrs", "description": "Cytostatic activity against human SR cells assessed as total growth inhibition measured after 48 hrs by sulforhodamine B assay"}, "HCT-15 [15]": {"test_system": "HCT-15", "type": "functional", "details": "Homo sapiens, time 48 hrs", "description": "Cytostatic activity against human HCT-15 cells assessed as total growth inhibition measured after 48 hrs by sulforhodamine B assay"}, "ACHN [16]": {"test_system": "ACHN", "details": "Homo sapiens, 48 h, read-out: LC50", "description": "Cytotoxicity activity against human ACHN cells assessed as reduction in cell growth measured after 48 hrs by sulforhodamine B assay"}, "UO-31": {"test_system": "UO-31", "details": "Homo sapiens, UO-31, 48 h, read-out: LC50", "description": "Cytotoxicity activity against human UO-31 cells assessed as reduction in cell growth measured after 48 hrs by sulforhodamine B assay"}, "SF-295 [17]": {"test_system": "SF-295", "type": "functional", "details": "Homo sapiens, time 48 hrs", "description": "Cytostatic activity against human SF-295 cells assessed as total growth inhibition measured after 48 hrs by sulforhodamine B assay"}, "SN12C": {"test_system": "SN12C", "details": "Homo sapiens, 48 h, read-out: LC50", "description": "Cytotoxicity activity against human SN12C cells assessed as reduction in cell growth measured after 48 hrs by sulforhodamine B assay"}, "U-251 [18]": {"test_system": "U-251", "details": "Homo sapiens, U-251, 48 h, read-out: LC50", "description": "Cytotoxicity activity against human U-251 cells assessed as reduction in cell growth measured after 48 hrs by sulforhodamine B assay"}, "NCI-H23": {"test_system": "NCI-H23", "details": "Homo sapiens, NCI-H23, 48 h, read-out: LC50", "description": "Cytotoxicity activity against human NCI-H23 cells assessed as reduction in cell growth measured after 48 hrs by sulforhodamine B assay"}, "M14 [19]": {"test_system": "M14", "details": "Homo sapiens, M14, 48 h, read-out: LC50", "description": "Cytotoxicity activity against human M14 cells assessed as reduction in cell growth measured after 48 hrs by sulforhodamine B assay"}, "CCRF-CEM": {"test_system": "CCRF-CEM", "details": "Homo sapiens, 48 h, read-out: LC50", "description": "Cytotoxicity activity against human CCRF-CEM cells assessed as reduction in cell growth measured after 48 hrs by sulforhodamine B assay"}, "HOP-62": {"test_system": "HOP-62", "type": "functional", "details": "Homo sapiens, time 48 hrs", "description": "Growth inhibition of human HOP-62 cells measured after 48 hrs by sulforhodamine B assay"}, "UACC-257": {"test_system": "UACC-257", "details": "Homo sapiens, UACC-257, 48 h, read-out: LC50", "description": "Cytotoxicity activity against human UACC-257 cells assessed as reduction in cell growth measured after 48 hrs by sulforhodamine B assay"}, "T47D [20]": {"test_system": "T47D", "type": "functional", "details": "Homo sapiens, time 48 hrs", "remark": "listed apart in the source", "description": "Cytostatic activity against human T47D cells assessed as total growth inhibition measured after 48 hrs by sulforhodamine B assay"}, "MDA-MB-231 [21]": {"test_system": "MDA-MB-231", "type": "functional", "details": "Homo sapiens, time 48 hrs", "description": "Growth inhibition of human MDA-MB-231 cells measured after 48 hrs by sulforhodamine B assay"}, "U-251 [22]": {"test_system": "U-251", "type": "functional", "details": "Homo sapiens, time 48 hrs", "description": "Cytostatic activity against human U-251 cells assessed as total growth inhibition measured after 48 hrs by sulforhodamine B assay"}, "SF-295 [23]": {"test_system": "SF-295", "details": "Homo sapiens, SF-295, 48 h, read-out: LC50", "description": "Cytotoxicity activity against human SF-295 cells assessed as reduction in cell growth measured after 48 hrs by sulforhodamine B assay"}, "RPMI-8226 [24]": {"test_system": "RPMI-8226", "type": "functional", "details": "Homo sapiens, time 48 hrs", "description": "Cytostatic activity against human RPMI-8226 cells assessed as total growth inhibition measured after 48 hrs by sulforhodamine B assay"}, "SR [25]": {"test_system": "SR", "details": "Homo sapiens, 48 h, read-out: LC50", "description": "Cytotoxicity activity against human SR cells assessed as reduction in cell growth measured after 48 hrs by sulforhodamine B assay"}, "SF-268": {"test_system": "SF-268", "type": "functional", "details": "Homo sapiens, time 48 hrs", "description": "Cytostatic activity against human SF-268 cells assessed as total growth inhibition measured after 48 hrs by sulforhodamine B assay"}, "KM12": {"test_system": "KM12", "type": "functional", "details": "Homo sapiens, time 48 hrs", "description": "Cytostatic activity against human KM12 cells assessed as total growth inhibition measured after 48 hrs by sulforhodamine B assay"}, "NCI/ADR-RES": {"test_system": "NCI/ADR-RES", "details": "Homo sapiens, 48 h, read-out: LC50", "description": "Cytotoxicity activity against human NCI/ADR-RES cells assessed as reduction in cell growth measured after 48 hrs by sulforhodamine B assay"}, "MDA-MB-231 [26]": {"test_system": "MDA-MB-231", "details": "Homo sapiens, MDA-MB-231, 48 h, read-out: LC50", "description": "Cytotoxicity activity against human MDA-MB-231 cells assessed as reduction in cell growth measured after 48 hrs by sulforhodamine B assay"}, "HCT-116": {"test_system": "HCT-116", "details": "Homo sapiens, HCT-116, 48 h, read-out: LC50", "description": "Cytotoxicity activity against human HCT-116 cells assessed as reduction in cell growth measured after 48 hrs by sulforhodamine B assay"}, "MDA-MB-435": {"test_system": "MDA-MB-435", "type": "functional", "details": "Homo sapiens, time 48 hrs", "description": "Growth inhibition of human MDA-MB-435 cells measured after 48 hrs by sulforhodamine B assay"}, "TK-10 [27]": {"test_system": "TK-10", "type": "functional", "details": "Homo sapiens, time 48 hrs", "remark": "listed apart in the source", "description": "Cytostatic activity against human TK-10 cells assessed as total growth inhibition measured after 48 hrs by sulforhodamine B assay"}, "A498": {"test_system": "A498", "type": "functional", "details": "Homo sapiens, time 48 hrs", "description": "Cytostatic activity against human A498 cells assessed as total growth inhibition measured after 48 hrs by sulforhodamine B assay"}, "NCI-H322M": {"test_system": "NCI-H322M", "type": "functional", "details": "Homo sapiens, time 48 hrs", "description": "Cytostatic activity against human NCI-H322M cells assessed as total growth inhibition measured after 48 hrs by sulforhodamine B assay"}},
  "data": [
    {"smiles": "CCOC(=O)c1ccc(N/N=C/c2cn(-c3ccc(S(N)(=O)=O)cc3)nc2-c2ccc(C)cc2)cc1", "values": [
      {"measurement": "TGI", "setting": "SK-MEL-5", "value": 10.2, "unit": "µM"},
      {"measurement": "CC50", "setting": "SF-539", "value": 35, "unit": "µM"},
      {"measurement": "GI50", "setting": "T47D [1]", "value": 3.89, "unit": "µM"},
      {"measurement": "CC50", "setting": "OVCAR-5", "value": 63.6, "unit": "µM"},
      {"measurement": "TGI", "setting": "NCI-H460", "value": 2.43, "unit": "µM"},
      {"measurement": "TGI", "setting": "OVCAR-4 [2]", "value": 71.5, "unit": "µM"},
      {"measurement": "TGI", "setting": "SK-MEL-28", "value": 19.6, "unit": "µM"},
      {"measurement": "CC50", "setting": "BT-549 [3]", "value": "> 100", "unit": "µM"},
      {"measurement": "GI50", "setting": "COLO 205", "value": 11.2, "unit": "µM"},
      {"measurement": "CC50", "setting": "RPMI-8226 [4]", "value": "> 100", "unit": "µM"},
      {"measurement": "TGI", "setting": "HL-60(TB) [5]", "value": 14.1, "unit": "µM"},
      {"measurement": "CC50", "setting": "OVCAR-4 [6]", "value": "> 100", "unit": "µM"},
      {"measurement": "GI50", "setting": "HL-60(TB) [7]", "value": 3.05, "unit": "µM"},
      {"measurement": "GI50", "setting": "SNB-75", "value": 10.1, "unit": "µM"},
      {"measurement": "GI50", "setting": "TK-10 [8]", "value": 24.5, "unit": "µM"},
      {"measurement": "GI50", "setting": "DU-145", "value": 5.06, "unit": "µM"},
      {"measurement": "TGI", "setting": "M14 [9]", "value": 3.57, "unit": "µM"},
      {"measurement": "CC50", "setting": "HCT-15 [10]", "value": 9.53, "unit": "µM"},
      {"measurement": "GI50", "setting": "SK-MEL-2", "value": 11.8, "unit": "µM"},
      {"measurement": "GI50", "setting": "SNB-19", "value": 4.1, "unit": "µM"},
      {"measurement": "GI50", "setting": "BT-549 [11]", "value": 10.8, "unit": "µM"},
      {"measurement": "TGI", "setting": "ACHN [12]", "value": 24.3, "unit": "µM"},
      {"measurement": "GI50", "setting": "CAKI-1", "value": 2.07, "unit": "µM"},
      {"measurement": "GI50", "setting": "M14 [13]", "value": 1.75, "unit": "µM"},
      {"measurement": "TGI", "setting": "SR [14]", "value": 2.65, "unit": "µM"},
      {"measurement": "TGI", "setting": "HCT-15 [15]", "value": 4.23, "unit": "µM"},
      {"measurement": "CC50", "setting": "ACHN [16]", "value": "> 100", "unit": "µM"},
      {"measurement": "CC50", "setting": "UO-31", "value": "> 100", "unit": "µM"},
      {"measurement": "TGI", "setting": "SF-295 [17]", "value": 24.8, "unit": "µM"},
      {"measurement": "CC50", "setting": "SN12C", "value": "> 100", "unit": "µM"},
      {"measurement": "CC50", "setting": "U-251 [18]", "value": "> 100", "unit": "µM"},
      {"measurement": "CC50", "setting": "NCI-H23", "value": 94.5, "unit": "µM"},
      {"measurement": "CC50", "setting": "M14 [19]", "value": 7.31, "unit": "µM"},
      {"measurement": "CC50", "setting": "CCRF-CEM", "value": "> 100", "unit": "µM"},
      {"measurement": "GI50", "setting": "HOP-62", "value": 6.55, "unit": "µM"},
      {"measurement": "CC50", "setting": "UACC-257", "value": "> 100", "unit": "µM"},
      {"measurement": "TGI", "setting": "T47D [20]", "value": "> 100", "unit": "µM"},
      {"measurement": "GI50", "setting": "MDA-MB-231 [21]", "value": 2.56, "unit": "µM"},
      {"measurement": "TGI", "setting": "U-251 [22]", "value": "> 100", "unit": "µM"},
      {"measurement": "CC50", "setting": "SF-295 [23]", "value": 74.3, "unit": "µM"},
      {"measurement": "TGI", "setting": "RPMI-8226 [24]", "value": 3.24, "unit": "µM"},
      {"measurement": "CC50", "setting": "SR [25]", "value": "> 100", "unit": "µM"},
      {"measurement": "TGI", "setting": "SF-268", "value": 34.2, "unit": "µM"},
      {"measurement": "TGI", "setting": "KM12", "value": 4.59, "unit": "µM"},
      {"measurement": "CC50", "setting": "NCI/ADR-RES", "value": "> 100", "unit": "µM"},
      {"measurement": "CC50", "setting": "MDA-MB-231 [26]", "value": 58, "unit": "µM"},
      {"measurement": "CC50", "setting": "HCT-116", "value": 54.2, "unit": "µM"},
      {"measurement": "GI50", "setting": "MDA-MB-435", "value": 2.87, "unit": "µM"},
      {"measurement": "TGI", "setting": "TK-10 [27]", "value": "> 100", "unit": "µM"},
      {"measurement": "TGI", "setting": "A498", "value": 31.8, "unit": "µM"},
      {"measurement": "TGI", "setting": "NCI-H322M", "value": 5.38, "unit": "µM"}
    ]}
  ]
}
